The numbers were not newly measured in patent US10729778B2, “Carrier-linked treprostinil prodrugs” (Ascendis Pharma A/S, priority 2011, dated 2020), which cites them from elsewhere.

The conditions of this data set: background statement.

As usually defined, the half-life is the time needed for the level to fall by half in the phase considered. Consider `CCCCC[C@H](O)CC[C@@H]1[C@H]2Cc3cccc(OCC(=O)O)c3C[C@H]2C[C@H]1O` [Treprostinil], for which the half-life is 4 h.
